What is called EC50 is the concentration at which the effect is half-maximal.

T1 sequence (P41594 21-942 isoform P41594-3 limits assumed): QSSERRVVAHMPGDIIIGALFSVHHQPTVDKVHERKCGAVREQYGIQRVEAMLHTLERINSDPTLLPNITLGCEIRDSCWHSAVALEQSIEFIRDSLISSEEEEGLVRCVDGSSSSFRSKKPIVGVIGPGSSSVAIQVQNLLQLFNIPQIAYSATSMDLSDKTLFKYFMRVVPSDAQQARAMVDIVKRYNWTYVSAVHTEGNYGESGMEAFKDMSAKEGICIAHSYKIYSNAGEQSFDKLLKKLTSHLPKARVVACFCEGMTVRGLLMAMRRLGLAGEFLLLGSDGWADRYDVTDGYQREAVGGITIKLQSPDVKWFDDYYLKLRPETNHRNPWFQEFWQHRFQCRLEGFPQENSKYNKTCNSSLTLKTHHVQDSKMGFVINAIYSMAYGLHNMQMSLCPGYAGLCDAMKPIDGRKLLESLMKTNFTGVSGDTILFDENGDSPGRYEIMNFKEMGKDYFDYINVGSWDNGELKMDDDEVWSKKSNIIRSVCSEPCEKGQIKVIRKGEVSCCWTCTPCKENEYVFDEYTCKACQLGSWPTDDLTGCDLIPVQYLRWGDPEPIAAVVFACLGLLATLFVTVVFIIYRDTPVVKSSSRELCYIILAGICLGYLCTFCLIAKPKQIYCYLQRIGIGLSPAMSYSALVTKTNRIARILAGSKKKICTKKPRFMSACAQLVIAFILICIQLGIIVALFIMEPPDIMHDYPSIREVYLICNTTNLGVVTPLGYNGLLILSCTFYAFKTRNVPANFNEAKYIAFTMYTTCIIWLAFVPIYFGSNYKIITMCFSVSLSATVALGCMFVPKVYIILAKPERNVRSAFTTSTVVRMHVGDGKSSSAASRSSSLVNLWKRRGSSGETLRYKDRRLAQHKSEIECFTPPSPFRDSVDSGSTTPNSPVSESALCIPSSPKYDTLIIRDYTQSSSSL

The test addresses T1, human mGluR5d (Homo sapiens, UniProt P41594).
T1 construct: expressed in transfected cells; host or cells: GHEK cells (human embryonic kidney cells expressing glutamate transporter), stated for the IP3 assay
Description: functional assays for mGluR5 potentiation: [Ca2+]i mobilization (FLIPR), secondary IP3 turnover assay. To be noted: active in assays described herein; which assay (FLIPR or IP3) is not stated. The class given is cell-based. From the text:
The pharmacological properties of the compounds of the invention can be analyzed using standard assays for functional activity. Examples of glutamate receptor assays are well known in the art as described in for example Aramori et al., Neuron 8:757 (1992), Tanabe et al., Neuron 8:169 (1992), Miller et al., J Neuroscience 15: 6103 (1995), Balazs, et al., J. Neurochemistry 69:151 (1997). The methodology described in these publications is incorporated herein by reference. Conveniently, the compounds of the invention can be studied by means of an assay that measures the mobilization of intracellular calcium, [Ca^2+]i in cells expressing mGluR5.
Intracellular calcium mobilization was measured by detecting changes in fluorescence of cells loaded with the fluorescent indicator fluo-3. Fluorescent signals were measured using the FLIPR system (Molecular Devices). A two addition experiment was used that could detect compounds that either activate or antagonize the receptor.
For FLIPR analysis, cells expressing human mGluR5d were seeded on collagen coated clear bottom 96-well plates with black sides and analysis of [Ca^2+]i mobilization was done 24 hours after seeding.
FLIPR experiments were performed using a laser setting of 0.800 W and a 0.4 second CCD camera shutter speed. Each FLIPR experiment was initiated with 160 μL of buffer present in each well of the cell plate. After each addition of the compound, the fluorescence signal was sampled 50 times at 1 second intervals followed by 3 samples at 5 second intervals. Responses were measured as the peak height of the response within the sample period.
EC50 and IC50 determinations were made from data obtained from 8-point concentration response curves (CRC) performed in duplicate. Agonist CRC were generated by scaling all responses to the maximal response observed for the plate. Antagonist block of the agonist challenge was normalized to the average response of the agonist challenge in 14 control wells on the same plate.
We have validated a secondary functional assay for mGluR5d based on Inositol Phosphate (IP3) turnover. IP3 accumulation is measured as an index of receptor mediated phospholipase C turnover. GHEK cells stably expressing the human mGluR5d receptors were incubated with [3H] myo-inositol overnight, washed three times in HEPES buffered saline and pre-incubated for 10 minutes with 10 mM LiCl. Compounds (agonists) were added and incubated for 30 minutes at 37° C. Antagonist and potentiator activity was determined by pre-incubating test compounds for 15 minutes, then incubating in the presence of glutamate or DHPG (EC80 for antagonists, EC30 for potentiators) for 30 minutes. Reactions were terminated by the addition of perchloric acid (5%). […]
In the case of `O=C(COCc1ccccc1)N1CCN(c2ccccc2)CC1` [Compound 12, 2-Benzyloxy-1-(4-phenyl-piperazin-1-yl)-ethanone], the EC50 worked out at 600 nM.
Regarding `N#Cc1cccnc1N1CCN(C(=O)COCc2ccccc2)CC1` [Compound 23, 2-[4-(2-Benzyloxy-acetyl)-piperazin-1-yl]-nicotinonitrile], the EC50 came out at 5100 nM.
For `O=C(COCc1ccc(F)cc1)N1CCN(c2ccc(F)cc2F)CC1` [Compound 48, 1-[4-(2,4-Difluoro-phenyl)-piperazin-1-yl]-2-(4-fluoro-benzyloxy)-ethanone], the EC50 was 400 nM.
Take `C[C@@H]1CN(c2ccc(Cl)cc2Cl)CCN1C(=O)COCc1ccncc1` [Compound 58, 1-[(R)-4-(2,4-Dichloro-phenyl)-2-methyl-piperazin-1-yl]-2-(pyridin-4-ylmethoxy)-ethanone]: the EC50 was 2300 nM.

The values are drawn from patent publication US7935703B2, “Piperazines and piperidines as Mglur5 potentiators” (AstraZeneca AB, priority 2006, dated 2011).
